Results: patent publication US20250382346A1, “NEURONAL PROMOTERS AND USES THEREOF” (priority 2023, published 2025)

Biological target: T1, hM3Dq (Homo sapiens, UniProt P20309, A239G/Y149C)
T1 construct: expressed in transfected cells; host or cells: neurons of C57BL/6J mice or of macaques, transduced in vivo by nigral AAV8R12-G88P3-HA-hM3Dq
Assay: Striatal slice whole-cell recordings of retrogradely labeled D1-MSNs, hM3Dq
Format: cell-based, mice
Conditions: AAV8R12-G88P3-HA-hM3Dq-2A-EYFP; CNO 10 μM; basal firing rate and resting membrane potential unaffected
Text: Mice from different groups were anesthetized with […] isoflurane, and then decapitated. The brain was quickly extracted and placed in ice-cold N-methyl-D-glucamine (NMDG) cutting solution containing (in mM): 92 NMDG, 2.5 KCl, 25 NaHCO3, 1.25 NaH2PO4, 4.5 D-Glucose, 20 HEPES, 5 L-ascorbic acid, 3 Na-pyruvate, 2 Thiourea, 10 MgSO4, 0.5 CaCl2). The pH was adjusted to 7.2±0.1 using HCl and the osmolarity was adjusted to 305±5 mosmol/L using NMDG. The solution was bubbled with 95% O2/5% CO2 prior to use. Coronal striatum slices were cut in 250-[…]m thickness with a vibratome slicer (Leica, VT1200 S), and then incubated in artificial cerebrospinal fluid (aCSF) saturated with 95% O2/5% CO2 for at least 45 min at 37° C. before recording. The aCSF contains (in mM) 125 NaCl, 1.25 KCl, 25 NaHCO3, 1.25 KH2PO4, 25 D-Glucose, 2 CaCl2) and 1 MgCl2, supplemented with 2 mM Na-pyruvate, 3 mM Myo-inositol and 0.4 mM L-ascorbic acid.
The acute striatum slice was transferred to the recording chamber with a constant perfusion of oxygenized aCSF at the rate of 3 ml/min. Neurons were visualized using an upright microscope (Olympus, BX-51) with a 40× water immersion objective at room temperature (˜25° C.). […] Neurons were quickly visualized under fluorescence microscope and then patch clamp were achieved under infrared light illumination and CCD camera. […]

T1 sequence (P20309 whole entry Y149C/A239G): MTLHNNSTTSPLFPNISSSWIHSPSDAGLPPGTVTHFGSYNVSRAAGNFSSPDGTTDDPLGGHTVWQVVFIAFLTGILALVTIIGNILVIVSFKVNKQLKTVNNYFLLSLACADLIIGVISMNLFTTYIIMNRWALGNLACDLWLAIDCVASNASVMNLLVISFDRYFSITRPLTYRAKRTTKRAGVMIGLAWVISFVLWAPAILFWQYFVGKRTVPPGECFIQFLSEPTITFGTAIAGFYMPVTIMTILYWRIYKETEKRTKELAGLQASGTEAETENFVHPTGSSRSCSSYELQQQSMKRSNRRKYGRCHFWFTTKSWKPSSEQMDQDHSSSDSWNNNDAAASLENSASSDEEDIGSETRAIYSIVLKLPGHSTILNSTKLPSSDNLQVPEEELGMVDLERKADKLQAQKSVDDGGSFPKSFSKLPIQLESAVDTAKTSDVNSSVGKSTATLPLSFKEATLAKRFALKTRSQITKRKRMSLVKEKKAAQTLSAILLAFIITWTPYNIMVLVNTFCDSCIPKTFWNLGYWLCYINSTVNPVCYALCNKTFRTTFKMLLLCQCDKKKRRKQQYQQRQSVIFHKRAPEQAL

In the case of C[N+]1([O-])CCN(C2=Nc3cc(Cl)ccc3Nc3ccccc32)CC1 [CNO, Clozapine-N-oxide], the “excitability of transduced MSNs upon CNO” value is reported as “augmentation of excitability”.
